Experimental data from patent publication US9182666B2, “Cyclic compound, method for producing the same, radiation-sensitive composition, and resist pattern formation method” (MITSUBISHI GAS CHEMICAL COMPANY, INC., priority 2011, dated 2015).

Experiment: Solubility test of compound in safe solvent
Type: physicochemical
Settings: 23° C.; for dissolution amount in CHN: cyclohexanone (CHN); for dissolution amount in PGME: propylene glycol monomethyl ether (PGME)
Protocol: The dissolution amounts of compounds obtained in the above synthesis examples 1 to 6 and syntheses 1 and 2 in propylene glycol monomethyl ether (PGME) and cyclohexanone (CHN) were evaluated as follows.
• A: 5.0% by mass≦dissolution amount • B: 3.0% by mass≦dissolution amount<5.0% by mass • C: dissolution amount<3.0% by mass *dissolution amount (% by mass)=mass (g) of compound dissolved in 100 g of solvent of 23° C./(100 g of mass of solvent+mass (g) of compound dissolved in 100 g of solvent of 23° C.)×100

Structure (SMILES) | dissolution amount in CHN | dissolution amount in PGME
Oc1cc(O)c2cc1C(c1ccc(C3CCCCC3)cc1)c1cc(c(O)cc1O)C(c1ccc(C3CCCCC3)cc1)c1cc(c(O)cc1O)C(c1ccc(C3CCCCC3)cc1)c1cc(c(O)cc1O)C2c1ccc(C2CCCCC2)cc1 (stereo not shown) [CR-2A] | B (3.0% by mass≦dissolution amount<5.0% by mass) | B (3.0% by mass≦dissolution amount<5.0% by mass)
CC(C)c1ccc(C2c3cc(c(O)cc3O)C(c3ccc(C(C)C)cc3)c3cc(c(O)cc3O)C(c3ccc(C(C)C)cc3)c3cc(c(O)cc3O)C(c3ccc(C(C)C)cc3)c3cc2c(O)cc3O)cc1 (stereo not shown) [CR-1A] | C (dissolution amount<3.0% by mass) | B (3.0% by mass≦dissolution amount<5.0% by mass)
